Assay results reported in patent US20060293516A1, “Penicillin crystal and process for producing the same” (priority 2003, published 2006).

How the values were obtained:
[1] = Stability of CMPB in dichloromethane solution, remaining CMPB by liquid chromatography; assay type: physicochemical; conditions: stirred at room temperature (about 25° C.)
Procedure: One gram of crystalline CMPB (purity: 97%) prepared by storing the crystalline CMPB of Example 1 for 20 days at room temperature (about 25° C.) and 1.244 g of amorphous CMPB (purity: 78%) prepared by storing the amorphous CMPB of Reference Example 1 for 20 days at room temperature (about 25° C.) were used as test samples. Each sample was placed in flasks and 10 ml dichloromethane was added to dissolve the sample. These flasks were sealed. […] The amounts of the remaining CMPB were compared with the amount of CMPB in the crystalline CMPB sample or the amount of CMPB in the amorphous CMPB sample, which were measured prior to the test.

[2] = Storage stability of solid CMPB at room temperature, purity by liquid chromatography; assay type: physicochemical
Procedure: Five grams of the crystalline CMPB obtained in Example 1 (purity: 100%) and 5 g of the amorphous CMPB obtained in Reference Example 1 (purity: 99.2%) were placed in respective test tubes. These test tubes were sealed and stored at room temperature (20 to 30° C.) for 1 month. The respective purities of the CMPB samples were then determined using liquid chromatography.
One gram of crystalline CMPB (purity: 97%) prepared by storing the crystalline CMPB of Example 1 for 20 days at room temperature (about 25° C.) and 1.244 g of amorphous CMPB (purity: 78%) prepared by storing the amorphous CMPB of Reference Example 1 for 20 days at room temperature (about 25° C.) were used as test samples. Each sample was placed in flasks and 10 ml dichloromethane was added to dissolve the sample. These flasks were sealed. The dichloromethane solutions of CMPB samples were stirred at room temperature (about 25° C.) and, after 3.5 hours and after […], subjected to liquid chromatography to measure the amounts of CMPB remaining in the solutions. The amounts of the remaining CMPB were compared with the amount of CMPB in the crystalline CMPB sample or the amount of CMPB in the amorphous CMPB sample, which were measured prior to the test.

[3] = sealed test tube, room temperature (20 to 30° C.), 1 month, initial purity 100% (crystalline), 99.2% (amorphous)
[4] = stored 20 days at room temperature (about 25° C.)

SMILES	amount of CMPB remaining in dichloromethane solution relative to initial amount ([1]; after 3.5 hours)	amount of CMPB remaining in dichloromethane solution relative to initial amount ([1]; after 5 hours)	purity after storage [2, 3] [%]	purity after storage [2, 4] [%]	amount of CMPB remaining in dichloromethane solution relative to initial amount ([1]; after 6 hours (so in the source)) [%]
C[C@@]1(CCl)SC2CC(=O)N2[C@H]1C(=O)OC(c1ccccc1)c1ccccc1 (stereo partly drawn) [crystalline CMPB, 2β-chloromethyl-2α-methylpenam-3α-carboxylic acid benzhydryl ester]	exactly the same as the initial amount	exactly the same as the initial amount	95	97	
C[C@@]1(CCl)SC2CC(=O)N2[C@H]1C(=O)OC(c1ccccc1)c1ccccc1 (stereo partly drawn) [amorphous CMPB, 2β-chloromethyl-2α-methylpenam-3α-carboxylic acid benzhydryl ester]	86.8%		67	78	63.4
